Tests used:
Morris 3924A hepatoma = test: Morris 3924A rat hepatoma in vivo
Method: Rat strain: ACI/T inbred (about 180 gr)
Tumor: Morris 3924A hepatoma is a fast-growing tumor which develops in inbred ACI/T animals. Three weeks after inoculation the tumor size is about 10 cm^3.
Preparation of tumor cells: hepatoma tumor cells are prepared from the animal about two weeks after inoculation. The tumor is surgically removed from the animal, separated from connective and necrotic tissues and minced in small pieces. Tumor fragments are then suspended in sterile physiological solution and inoculated in the internal site of one thigh using a 20 ml-syringe with a large size needle. Routinely 0.5 ml of cell suspension are injected. The success rate of tumor implantation is nearly 99%.
On the eleventh day, hepatoma cells were inoculated subcutaneously in pre-treated and in three non-treated control rats.
Procedures and Results: Morris hepatoma cells were inoculated in 4 rats ([…]). The same day, treatment with efavirenz was initiated in two of them by injecting 1 mg/rat/day.

HL60 cells = test: Cytofluorimetric analysis of cell surface markers; type: cell-based, human; settings: HL60, NEV 450 μM, 4 days
Excerpt: (§1) The induction of CD11b is associated with granulocytic differentiation, CD14 is considered a monocytic specific antigen and CD15 is a myelomonocytic antigen. Simultaneous induction of CD14 and CD11b relates to monocytic differentiation. […] In nevirapine-treated NB4 and HL60 cells, a strong induction of expression of CD15, and, to a lesser degree, CD11b and CD14 markers was detected.

NB4 cells [1] = test: Cytofluorimetric analysis of cell surface markers; type: cell-based, human; settings: NB4, NEV 450 μM, 4 days
Excerpt: as §1

AML#1 = test: Cytofluorimetric analysis of cell surface markers; type: cell-based, human; settings: AML#1, NEV 450 μM, 4 days
NB4 cells [2] = test: NBT dye reduction assay; type: cell-based, human; settings: NB4, Nev 350 μM, 4 days
[3] = tested on: cyclin D1 in U343 Mg glioma; test: Western immunoblotting of cyclin D1; type: cell-based, human; settings: 72 h nevirapine vs non-exposed controls, data not shown
Excerpt: (§2) FIG. 3A. Cell cycle analysis in control and nevirapine-exposed cells. […] In the U343 glioma cell line, the cell cycle was separately analysed in the diploid cell fraction (representing about ⅔ of all cells) and in the remaining fraction (about ⅓) which develops aneuploidy. FIG. 3B. […] The filter was reprobed with anti-actin antibody to control equal loading (lower panel).

[4] = tested on: C2C7 myogenic satellite cells; test: Differentiation of C2C7 myogenic cells (myotube scoring, MHC immunofluorescence); type: cell-based, murine; settings: nevirapine pre-treatment, differentiation medium 48 h, anti-MHC IF
Excerpt: FIG. 4C, 60× magnification of myotubes in A. FIG. 4D, 60× magnification of myotubes in B. FIG. 4E, 60× magnification of MHC-positive myoblasts in the field in B.
Murine C2C7 myogenic satellite cells, which proliferate as mononucleated myoblasts can be induced to differentiate upon growth factor withdrawal and form multinucleated myotubes that express muscle-specific genes. […] By light-field microscopy scoring (n=300 cells from randomly selected fields), the ratio between multinucleated myotubes (i.e., cells with more than three nuclei) and mono/binucleated cells was about 1:1 in nevirapine-treated compared to 1:2 in untreated samples. Cells monolayers were further analyzed by immunofluorescence (IF) using a polyclonal antibody to myosin heavy chain (MHC), a late marker of muscle differentiation.

[5] = tested on: Kasumi-1 cell line and primary blasts from two AML patients; test: Cell cycle in myeloid leukemia cells poorly sensitive to RA; type: cell-based, human; settings: nevirapine treatment, data not shown
ascite tumor = test: BALB/C mice inoculated with ascite tumor; type: in vivo; settings: nevirapine 1 mg/mouse/day intraperitoneally for seven days from day of inoculation; controls 5/5 tumor
Method: Procedure: 10 BALB/C mice were inoculated intraperitoneally (twice) with ascite tumor cells by injecting 0.2 ml of ascite withdrawn from an animal inoculated 8 days before. […] Mice were treated continuously with nevirapine for seven days.

AML #1 = test: NBT dye reduction assay; type: cell-based, human; settings: AML #1, Nev 350 μM, 4 days
[6] = tested on: HT-29 colon carcinoma cells; test: Cell proliferation by cell counting; type: cell-based, human; settings: 350 μM nevirapine
Excerpt: Samples were withdrawn at specific times and cells were counted in nevirapine-exposed and control (DMSO-exposed) cultures. […] Saos-2 osteosarcoma cells were the most slowly responsive type, and only after 5 days of exposure did the growth rate begin to decrease compared to control cultures.

F9 cells = test: Semi-quantitative RT-PCR of cell cycle regulatory genes; type: cell-based, murine; settings: nevirapine compared to non-exposed F9 cultures
Excerpt: FIG. 7B: Quantitative variations in gene expression. RT-PCR products hybridized with internal oligonucleotides were quantified by densitometry. […] Dark histograms represent the mean value, and light histograms the standard deviation, from at least three experiments for each gene. […] We examined a set of genes encoding D-type cyclins; growth inhibitors; modulators of apoptosis; and housekeeping proteins.

NIH/3T3 = test: FACS cell cycle analysis; type: cell-based, murine; settings: after 72 h of nevirapine treatment
Excerpt: as §2

SMILES: Cc1ccnc2c1NC(=O)c1cccnc1N2C1CC1 [nevirapine, 5,11-dihydro-11-cyclopropyl-4-methyl-6H-dipyrido-[3,2-b:2′,3′-e][1,4]diazepin-6-one]
- tumor at the site of injection (Morris 3924A hepatoma; nevirapine 18 mg/rat/day pre-treatment for 11 days, 17 days from inoculation, only one of 3 treated rats, controls 2-4 cm^3): small nodule of a few millimeters
- rats in which onset and growth of hepatoma were antagonized (remained permanently healthy) (Morris 3924A hepatoma; nevirapine 18 mg/rat/day pre-treatment for 11 days, untreated 3/3 develop tumor): ⅔
- histology of tumor tissue (Morris 3924A hepatoma; nevirapine-treated rat vs untreated sample): transformed areas are remarkably reduced, and cells present clear apoptotic features
- CD11b mean fluorescence intensity (HL60 cells): 16.6 AU
- CD14 mean fluorescence intensity (HL60 cells): 45.3 AU
- CD15 mean fluorescence intensity (HL60 cells): 1298.1 AU
- CD11b mean fluorescence intensity (NB4 cells [1]): 10.1 AU
- CD14 mean fluorescence intensity (NB4 cells [1]): 23.1 AU
- CD15 mean fluorescence intensity (NB4 cells [1]): 196.3 AU
- CD11b mean fluorescence intensity (AML#1): 5.9 AU
- CD14 mean fluorescence intensity (AML#1): 8.8 AU
- CD15 mean fluorescence intensity (AML#1): 15.6 AU
- NBT+ (%) (NB4 cells [2]): 37.2 ± 1.4%
- cyclin D1 levels [3]: substantial decrease
- myosin synthesis in isolated myoblasts [4]: already activated
- accumulation of cells in the G1 phase of the cell cycle [5]: modest yet constant accumulation
- treated animals remaining healthy with no evidence of tumor growth (ascite tumor): ⅗
- NBT+ (%) (AML #1): 19.5 ± 0.7%
- effectiveness of proliferation suppression compared with F9 [6]: comparable effectiveness
- Bcl-2 expression (F9 cells): Up-regulation
- Cyclin D3 expression (F9 cells): down-regulated
- Rb-2/p130 expression (F9 cells): Up-regulation
- cyclin D1 gene down-regulation (F9 cells): 7 fold
- expression of housekeeping genes (β-actin, GAPDH) (F9 cells): unaffected
- p16^INK4a up-regulation (F9 cells): ~8 fold
- p27^Kip1 expression (F9 cells): Up-regulation
- p53 expression (F9 cells): unaffected
- cells with a G0/G1 DNA content (NIH/3T3): accumulated

Source: patent publication US10507207B2, “Non-nucleosidic inhibitors of reverse transcriptase as antagonists of cell proliferation and inducers of cell differentiation” (ISTITUTO SUPERIORE DI SANITA, priority 2001, dated 2019)
